In patent US20150335647A1, “Methods of Increasing Liver Proliferation” (priority 2009, published 2015):

Legend:
[1] = test system: BMP-mediated SMAD 1, 5 and 8 phosphorylation; conditions: cited from earlier work
hepatocyte proliferation = test: BrdU hepatocyte proliferation after 2/3 hepatectomy in mice treated with dorsomorphin; format: in vivo; conditions: 8 week old mice, dorsomorphin 10 mg/kg vs saline, injected 24 and 12 h prior to, at, and 12, 24, 36 h after 2/3 hepatectomy; measured at 36 and 48 hours
Protocol: Animals were used to examine the role of various members of BMP signaling in restoration of liver mass after injury. Mice were subjected to two-thirds (“⅔”) or massive eighty percent (80%) hepatectomy. Surgery was performed on adult mice at least 8 weeks of age. For surgery, mice were anesthetized with 100 mg/kg ketamine and 10 mg/kg xylazine which were injected intraperitoneally. […] This was repeated until the subject was unconscious. Hair was removed from the surgical site using a clipper and the skin was disinfected using aseptic technique and betadyne. The scrubbed area was rinsed with 70% alcohol. To avoid hypothermia, the animal was not wetted more than necessary. An incision was made with a sterile scissors at the level of the xiphiod approximately one centimeter toward the umbilicus. The peritoneum was entered with a scissors and the tip of the xiphoid was excised. For ⅔ hepatectomy, the liver was exteriorized through the incision via gentle pressure on the flanks over an area previously prepped. A 4-0 silk ligature was placed around the exteriorized portion of the liver and tied. The anterior portion of the liver distal to the tie was then excised. A 4-0 proline was used to close the fascia and a 4-0 nylon was used to close the skin in a subcuticular fashion. […]

MAPK p38 activation = conditions: cited from earlier work
BMP signaling = conditions: in vivo; cited from earlier work
[2] = test system: type I BMP receptors, namely, ALK2, ALK3, and ALK6; conditions: cited from earlier work
[3] = test system: osteogenic differentiation induced by BMP4 or BMP6; conditions: induced by BMP4 or BMP6 in vitro; compared with noggin; cited from earlier work
[4] = Systemic toxicity of dorsomorphin administration for up to 60 days
Protocol: To provide clinical relevance for the findings discussed above, eight week old mice were injected with an antagonist of BMP signaling. Dorsomorphin was injected for 48 hours prior to, during, and after ⅔ hepatectomy. Specifically, dorsomorphin was injected multiple times at 24 and 12 hours prior to hepatectomy, at the time of hepatectomy, and 12, 24, and 36 hours after hepatectomy.

In the case of `c1cc(-c2cnn3cc(-c4ccc(OCCN5CCCCC5)cc4)cnc23)ccn1` [Dorsomorphin], the “BMP-mediated SMAD 1, 5 and 8 phosphorylation” value [1] is given as “block”, the “hepatocyte proliferation (BrdU incorporation)” value (hepatocyte proliferation) is given as “marked enhancement of hepatocyte proliferation” and the “MAPK p38 activation” value (MAPK p38 activation) is given as “without affecting”. The “dorsalization in zebrafish embryos” value (BMP signaling) was “effectively promote dorsalization”, the “inhibition of type I BMP receptors ALK2, ALK3, and ALK6” value [2] was “selectively inhibiting” and the “inhibition of osteogenic differentiation” value [3] was “more potent than that seen with treatment with noggin”. The “effect on bone marrow” value [4] was “no effect”, the effect on growth [4] was “no effect” and the “effect on white blood cell count” value [4] was “no effect”. For the same molecule, the systemic toxicity [4] was “did not produced systemic toxicity”.
